Measurements reported in patent publication US9850225B2, “Compounds useful as immunomodulators” (BRISTOL-MYERS SQUIBB COMPANY, priority 2014, dated 2017).

Biological target: PD-1/PD-L1 interaction (PD-1-Ig / PD-L1-His) (Homo sapiens (Human), UniProt Q9NZQ7)
Assay: PD-1/PD-L1 Homogenous Time-Resolved Fluorescence (HTRF) binding assay
Settings: PD-1/PD-L1 HTRF binding assay; value given as range class; read-out: Range or IC50
Procedure, shortened: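 HTRF detection used 1 nM europium-cryptate anti-Ig and 20 nM APC anti-His. Compounds first saw 10 nM PD-L1-His for 15 min, and 20 nM PD-1-Ig was then added for another 15 min. Buffer was dPBS plus 0.1% BSA and 0.05% Tween-20. All concentrations are final.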

Sequence of PD-1/PD-L1 interaction (PD-1-Ig / PD-L1-His) (Q9NZQ7 other isoform, or with tags, fused parts or gaps): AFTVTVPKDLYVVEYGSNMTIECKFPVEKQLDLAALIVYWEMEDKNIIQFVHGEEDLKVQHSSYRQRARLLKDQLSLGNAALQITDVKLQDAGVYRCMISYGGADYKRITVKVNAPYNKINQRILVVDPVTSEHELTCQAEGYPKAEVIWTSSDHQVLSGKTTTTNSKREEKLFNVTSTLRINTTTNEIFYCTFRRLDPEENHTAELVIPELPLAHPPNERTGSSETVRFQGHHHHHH

SMILES	IC50
CC(=O)NCCNCc1ccc(OCc2cccc(-c3ccccc3)c2C)cc1OCc1c(F)cccc1F [Example 1049, N-(2-((2-((2,6-difluorobenzyl)oxy)-4-((2-methyl-[1,1′-biphenyl]-3-yl)methoxy)benzyl)amino)ethyl)acetamide]	100 to 20000 nM
CC(=O)NCCNCc1ccc(OCc2cccc(-c3ccccc3)c2C)cc1OCc1ccc(C(F)(F)F)cc1 [Example 1052, N-(2-((4-((2-methyl-[1,1′-biphenyl]-3-yl)methoxy)-2-((4-(trifluoromethyl)benzyl)oxy)benzyl)amino)ethyl)acetamide]	100 to 20000 nM
COC(=O)c1cccc(COc2cc(OCc3cccc(-c4ccccc4)c3C)ccc2CNCCNC(C)=O)c1 [Example 1034, methyl 3-((2-(((2-acetamidoethyl)amino)methyl)-5-((2-methyl-[1,1′-biphenyl]-3-yl)methoxy)phenoxy)methyl)benzoate]	100 to 20000 nM
Cc1c(COc2cc(OCc3cccc(C#N)c3)c(CNC(Cc3ccccc3O)C(=O)O)cc2Cl)cccc1-c1ccc2c(c1)OCCO2 (stereo not drawn) [Example 1181, 2-((5-chloro-2-((3-cyanobenzyl)oxy)-4-((3-(2,3-dihydrobenzo[b][1,4]dioxin-6-yl)-2-methylbenzyl)oxy)benzyl)amino)-3-(2-hydroxyphenyl)propanoic acid]	10 to 100 nM
COc1cc(OCc2cccc(-c3ccccc3)c2C)cc(OCc2cccc(C#N)c2)c1CN[C@@H](C(=O)O)[C@@H](C)O [Example 1138, (2R,3R)-2-((2-((3-cyanobenzyl)oxy)-6-methoxy-4-((2-methyl-[1,1′-biphenyl]-3-yl)methoxy)benzyl)amino)-3-hydroxybutanoic acid]	10 to 100 nM
CC(=O)NCCNCc1ccc(OCc2cccc(-c3ccccc3)c2C)cc1OCc1cccc(F)c1F [Example 1071, N-(2-((2-((2,3-difluorobenzyl)oxy)-4-((2-methyl-[1,1′-biphenyl]-3-yl)methoxy)benzyl)amino)ethyl)acetamide]	100 to 20000 nM
Cc1c(COc2cc(OCc3cccc(C#N)c3)c(CN[C@@H](C(=O)O)[C@H](C)O)cc2Cl)cccc1-c1ccc2c(c1)OCCO2 [Example 1195, (2R,3S)-2-((5-chloro-2-((3-cyanobenzyl)oxy)-4-((3-(2,3-dihydrobenzo[b][1,4]dioxin-6-yl)-2-methylbenzyl)oxy)benzyl)amino)-3-hydroxybutanoic acid]	0.6 to 10 nM
Cc1c(COc2cc(OCc3cncc(C#N)c3)c(CNC[C@@H](O)CC(=O)O)cc2Br)cccc1-c1ccc2c(c1)OCCO2 [Example 1316, (S)-4-(5-bromo-2-((5-cyanopyridin-3-yl)methoxy)-4-(3-(2,3-dihydrobenzo[b][1,4]dioxin-6-yl)-2-methylbenzyloxy)benzylamino)-3-hydroxybutanoic acid]	0.6 to 10 nM
CC[C@@H](NCc1cc(Cl)c(OCc2cccc(-c3ccc4c(c3)OCCO4)c2C)cc1OCc1cccc(C#N)c1)C(=O)O [Example 1193, (R)-2-((5-chloro-2-((3-cyanobenzyl)oxy)-4-((3-(2,3-dihydrobenzo[b][1,4]dioxin-6-yl)-2-methylbenzyl)oxy)benzyl)amino)butanoic acid]	0.6 to 10 nM
CC(=O)Nc1cc(COc2cc(OCc3cccc(-c4ccc5c(c4)OCCO5)c3C)c(Cl)cc2C=O)ccn1 [Example 3010, N-(4-((4-chloro-5-((3-(2,3-dihydrobenzo[b][1,4]dioxin-6-yl)-2-methylbenzyl)oxy)-2-formylphenoxy)methyl)pyridin-2-yl)acetamide]	100 to 20000 nM
CC(=O)NCCNCc1ccc(OCc2cccc(-c3ccccc3)c2C)cc1OCc1ccc(F)c(Cl)c1 [Example 1110, N-(2-((2-((3-chloro-4-fluorobenzyl)oxy)-4-((2-methyl-[1,1′-biphenyl]-3-yl)methoxy)benzyl)amino)ethyl)acetamide]	100 to 20000 nM
Cc1c(COc2cc(OCc3cccc(C#N)c3)c(CN[C@H](C(=O)O)[C@H](C)O)cc2Cl)cccc1-c1ccc2c(c1)OCCO2 [Example 1189, (2S,3S)-2-((5-chloro-2-((3-cyanobenzyl)oxy)-4-((3-(2,3-dihydrobenzo[b][1,4]dioxin-6-yl)-2-methylbenzyl)oxy)benzyl)amino)-3-hydroxybutanoic acid]	0.6 to 10 nM
Cc1c(COc2ccc(CN[C@H](CO)CC(=O)O)c(OCc3cccc(C#N)c3)c2)cccc1-c1ccccc1 [Example 1021, (S)-3-((2-((3-cyanobenzyl)oxy)-4-((2-methyl-[1,1′-biphenyl]-3-yl)methoxy)benzyl)amino)-4-hydroxybutanoic acid]	0.6 to 10 nM
CC(=O)NCCNCc1ccc(OCc2cccc(-c3ccccc3)c2C)cc1OCc1cc(F)cc(OC(F)(F)F)c1 [Example 1106, N-(2-((2-((3-fluoro-5-(trifluoromethoxy)benzyl)oxy)-4-((2-methyl-[1,1′-biphenyl]-3-yl)methoxy)benzyl)amino)ethyl)acetamide]	100 to 20000 nM

Next, values leading:

IC50	SMILES
0.6 to 10 nM	COc1cc(OCc2cccc(-c3ccc4c(c3)OCCO4)c2C)cc(OCc2cccc(C#N)c2)c1CN[C@H](CO)C(=O)O [Example 1139, (R)-2-((2-((3-cyanobenzyl)oxy)-4-((3-(2,3-dihydrobenzo[b][1,4]dioxin-6-yl)-2-methylbenzyl)oxy)-6-methoxybenzyl)amino)-3-hydroxypropanoic acid]
0.6 to 10 nM	Cc1c(COc2cc(OCc3cccc(C#N)c3)c(CN3CCCC[C@H]3C(=O)O)cc2Cl)cccc1-c1ccc2c(c1)OCCO2 [Example 1230, (S)-1-(5-chloro-2-((3-cyanobenzyl)oxy)-4-((3-(2,3-dihydrobenzo[b][1,4]dioxin-6-yl)-2-methylbenzyl)oxy)benzyl)piperidine-2-carboxylic acid]
0.6 to 10 nM	COc1cc(COc2cc(OCc3cccc(-c4ccc5c(c4)OCCO5)c3C)c(Cl)cc2CN[C@@](C)(CO)C(=O)O)ccn1 [Example 3015, (2S)-2-{[(5-chloro-4-{[3-(2,3-dihydro-1,4-benzodioxin-6-yl)-2-methylphenyl]methoxy}-2-[(2-methoxypyridin-4-yl)methoxy]phenyl)methyl]amino}-3-hydroxy-2-methylpropanoic acid]
0.6 to 10 nM	Cc1c(COc2cc(OCc3cccc(C#N)c3)c(CNC(C)(Cc3c[nH]cn3)C(=O)O)cc2Cl)cccc1-c1ccc2c(c1)OCCO2 (stereo not drawn) [Example 1191, 2-((5-chloro-2-((3-cyanobenzyl)oxy)-4-((3-(2,3-dihydrobenzo[b][1,4]dioxin-6-yl)-2-methylbenzyl)oxy)benzyl)amino)-3-(1H-imidazol-4-yl)-2-methylpropanoic acid]
0.6 to 10 nM	C=Cc1cc(CN2CCCC[C@H]2C(=O)O)c(OCc2cccc(C#N)c2)cc1OCc1cccc(-c2ccc3c(c2)OCCO3)c1C [Example 1293, (S)-1-(2-(3-cyanobenzyloxy)-4-(3-(2,3-dihydrobenzo[b][1,4]dioxin-6-yl) -2-methylbenzyloxy)-5-vinylbenzyl)piperidine-2-carboxylic acid]
0.6 to 10 nM	C[C@](CO)(NCc1cc(Cl)c(OCc2cccc(-c3ccc4c(c3)OCCO4)c2C#N)cc1OCc1cccc(C#N)c1)C(=O)O [Example 1241, (R)-2-((5-chloro-4-((2-cyano-3-(2,3-dihydrobenzo[b][1,4]dioxin-6-yl)benzyl)oxy)-2-((3-cyanobenzyl)oxy)benzyl)amino)-3-hydroxy-2-methylpropanoic acid]
0.6 to 10 nM	Cc1c(COc2ccc(CNC[C@@H](O)CC(=O)O)c(OCc3cccc(C#N)c3)c2)cccc1-c1ccccc1 [Example 1011, (S)-4-((2-((3-cyanobenzyl)oxy)-4-((2-methyl-[1,1′-biphenyl]-3-yl)methoxy)benzyl)amino)-3-hydroxybutanoic acid]
0.6 to 10 nM	Cc1c(COc2cc(OCc3cccc(C#N)c3)c(CN(C)[C@@H](CC(=O)O)C(=O)O)cc2Cl)cccc1-c1ccc2c(c1)OCCO2 [Example 1203, (S)-2-((5-chloro-2-((3-cyanobenzyl)oxy)-4-((3-(2,3-dihydrobenzo[b][1,4]dioxin-6-yl)-2-methylbenzyl)oxy)benzyl)(methyl)amino)succinic acid]
0.6 to 10 nM	CC(=O)NCCNCc1c(C)cc(OCc2cccc(-c3ccc4c(c3)OCCO4)c2C)cc1OCc1cncc(C#N)c1 [Example 1005, N-(2-(2-((5-cyanopyridin-3-yl)methoxy)-4-(3-(2,3-dihydrobenzo[b][1,4]dioxin-6-yl)-2-methylbenzyloxy)-6-methylbenzylamino)ethyl)acetamide]
0.6 to 10 nM	Cc1c(COc2ccc(CN[C@](C)(CO)C(=O)O)c(OCc3cc(C#N)ccn3)c2)cccc1-c1ccc2c(c1)OCCO2 [Example 1131, (R)-2-(2-((4-cyanopyridin-2-yl)methoxy)-4-(3-(2,3-dihydrobenzo[b][1,4]dioxin-6-yl)-2-methylbenzyloxy)benzylamino)-3-hydroxy-2-methylpropanoic acid]
0.6 to 10 nM	Cc1c(COc2cc(OCc3cncc(C#N)c3)c(CN[C@@H](CCCCN(C)C)C(=O)O)cc2Cl)cccc1-c1ccc2c(c1)OCCO2 [Example 2006, (S)-2-((5-chloro-2-((5-cyanopyridin-3-yl)methoxy)-4-((3-(2,3-dihydrobenzo[b][1,4]dioxin-6-yl)-2-methylbenzyl)oxy)benzyl)amino)-6-(dimethylamino)hexanoic acid]
0.6 to 10 nM	Cc1c(COc2cc(OCc3cccc(C#N)c3)c(CN[C@H](CO)C(=O)O)cc2Cl)cccc1-c1ccc2c(c1)OCCO2 [Example 1157, (R)-2-((5-chloro-2-((3-cyanobenzyl)oxy)-4-((3-(2,3-dihydrobenzo[b][1,4]dioxin-6-yl)-2-methylbenzyl)oxy)benzyl)amino)-3-hydroxypropanoic acid]
0.6 to 10 nM	Cc1c(COc2cc(OCc3cccc(C#N)c3)c(CNC(CN(C)C)C(=O)O)cc2Cl)cccc1-c1ccc2c(c1)OCCO2 (stereo not drawn) [Example 1172, 2-((5-chloro-2-((3-cyanobenzyl)oxy)-4-((3-(2,3-dihydrobenzo[b][1,4]dioxin-6-yl)-2-methylbenzyl)oxy)benzyl)amino)-3-(dimethylamino)propanoic acid]
